Measured values published in patent US12234247B2, “Heterocyclic compound and harmful arthropod-controlling composition containing same” (SUMITOMO CHEMICAL COMPANY, LIMITED, priority 2019, dated 2025).

Tested on: cotton aphids (Aphis gossypil)
Experiment: Test method 1: foliar spray on cucumber seedlings infested with cotton aphids
Format: in vivo
Conditions: 200 ppm, spray 10 mL/seedling, counted 5 days after spraying, 25° C.
Description: Next, Test Examples are used to show effects of the Present compounds on harmful arthropods. In the following Test Examples, the tests were carried out at 25° C. […] Cucumber (Cucumis sativus) seedlings (on the developmental stage of the second true leaf) are planted in a container and approximately 30 cotton aphids (Aphis gossypil) (all stages of life) are released onto the cucumber seedlings. After 1 day, each of said diluted solutions is sprayed into the seedlings in a ratio of 10 mL/seedling. After additional 5 days, the number of the surviving insects is examined and the controlling value is calculated by the following equation. Controlling value (%)={1-(Cb×Tai)/(Cai×Tb)}×100 wherein the symbols in the equation represent the following meanings. • Cb: Number of the test insects in non-treated area; • Cai: Number of the surviving insects at the time of the investigation in non-treated area; • Tb: Number of the test insects in treated area; • Tai: Number of the surviving insects at the time of the investigation in treated area; Here, the “non-treated area” represents an area where the same treatment procedure as that of the treated area is done except for not using each test compound.

SMILES: CCS(=O)(=O)c1c(-n2nc3ccc(C(F)(F)F)cn3c2=O)nc2ccc(C(F)(F)F)cn12 [compound 2]
- controlling value: ≥ 90%
